Results on one molecule are retold here after BindingDB's records for doi:10.1021/jm020270n (Dainippon Pharmaceutical, 2003).

The structures appear in SMILES notation. pKi: −log10 of the molar value.

The assay deals with D(2) dopamine receptor (Rattus norvegicus, UniProt P61169). As to the kind of experiment: Affinity towards Dopamine receptor D2 in rat striatum using [3H]spiperone as radioligand.
D(2) dopamine receptor, sequence (P61169 whole entry): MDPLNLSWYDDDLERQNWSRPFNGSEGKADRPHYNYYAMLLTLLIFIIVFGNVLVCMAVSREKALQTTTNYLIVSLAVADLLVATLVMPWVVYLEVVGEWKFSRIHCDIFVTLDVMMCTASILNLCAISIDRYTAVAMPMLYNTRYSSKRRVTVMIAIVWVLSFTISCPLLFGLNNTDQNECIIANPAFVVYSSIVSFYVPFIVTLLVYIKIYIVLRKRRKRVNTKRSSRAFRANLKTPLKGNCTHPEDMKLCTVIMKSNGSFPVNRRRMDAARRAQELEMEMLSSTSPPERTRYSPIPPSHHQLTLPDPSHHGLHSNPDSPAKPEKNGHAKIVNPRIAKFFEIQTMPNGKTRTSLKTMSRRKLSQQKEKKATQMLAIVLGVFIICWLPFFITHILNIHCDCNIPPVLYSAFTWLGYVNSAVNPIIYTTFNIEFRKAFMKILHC

A word on the pKi: it is −log10 of the Ki, conventionally taken in molar units. Lower therefore signals a high Ki. In turn, `COc1cc(N)c(Cl)cc1C(=O)NC1CC2CCC(C1)N2C` (stereo unspecified) [4-amino-5-chloro-2-methoxy-N-(8-methyl-8-azabicyclo[3.2.1]octan-3-yl)benzamide] showed a pKi below 6.00.
